The source of these data is patent publication US20230255966A1, “A COMBINATION OF A CBP/P300 BROMODOMAIN INHIBITOR AND AN EGFR INHIBITOR FOR USE IN TREATING EGFR-MUTANT NSCLC” (TOLREMO THERAPEUTICS AG, priority 2020, published 2023).

The structures appear in SMILES notation.

For assay [1], the system named is HCC827 cells. Put plainly: Cell counting by nuclear fluorescent staining (Hoechst33342). Format: cell-based. As for the experimental part:
Several plates were seeded, as for each time point of cell counting one plate was fixed and stained for analysis. […] Cell cultivation was continued until time of fixation and analysis for each plate. For extended time-points, medium and drugs were replenished twice weekly.
At the given time plates were washed 3 times with PBS and cells fixed with 80 μl 4% PFA for 10 min, RT. After 3 wash steps with PBS cells were stained with 10 μg/ml Hoechst33342 (Thermo Scientific H12492) in 100 μl PBS for 2 h, RT, dark. After 3× PBS washing-steps, Hoechst33342 signals were acquired on in an automated imaging mode using a Zeiss Apotome with motorized X/Y stage and a 5× objective. Image analysis and determination of Hoechst33342 spots (nuclei) was done using ImageJ. Number of nuclei was plotted as function of time using GraphPad Prism.

In a further assay the target is T1, CBP bromodomain (Homo sapiens, UniProt Q92793).
T1 construct: purchased Cayman chemicals 600850
T1 sequence (Q92793 1085-1192 limits assumed): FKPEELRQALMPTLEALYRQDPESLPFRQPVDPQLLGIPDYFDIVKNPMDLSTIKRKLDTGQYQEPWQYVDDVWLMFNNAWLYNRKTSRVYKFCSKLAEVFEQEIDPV
Put plainly: CBP bromodomain binding assay (TR-FRET). Conditions: class symbols. As for the experimental part:
Compounds solutions of 10 mM in DMSO were pre-diluted in DSMO to 25× stock solutions in DMSO. These were then diluted down to 4× in Assay buffer. A dilution series in Assay buffer was performed keeping the DMSO concentration stable. 5 μl compound in assay buffer was transferred into the assay plate (provided by assay kit) and the TR-FRET assay Cayman chemicals; 600850) was performed using the manufactor's instructions. […] The TR-FRET ratio was calculated by dividing 670 nm emission by 620 nm emission.
Background: TR-FRET usually uses a lanthanide donor and a delayed reading to cut background.

The target of the next assay is T2, PBRM1(2) (Homo sapiens, UniProt Q86U86).
T2 construct: T7 phage strains displaying bromodomains were grown in parallel; purchased DiscoverX (BROMOscan / BromoKdMAX service); host or cells: T7 phage in E. coli host derived from BL21
T2 sequence (Q86U86 177-287 limits assumed): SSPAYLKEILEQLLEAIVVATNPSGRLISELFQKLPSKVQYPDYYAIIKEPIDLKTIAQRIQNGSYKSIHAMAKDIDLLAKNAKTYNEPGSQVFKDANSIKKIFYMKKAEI
Put plainly: BROMOscan BromoKdMAX. Format: binding. As for the experimental part: (§1) A BromoKdMAX was performed at DiscoverX.
(§2) The assay principle is the following: BROMOscan™ is a novel industry leading platform for identifying small molecule bromodomain inhibitors. Based on proven KINOMEscan™ technology, BRO-MOscan™ employs a proprietary ligand binding site-directed competition assay to quantitatively measure interactions between test compounds and bromodomains. This robust and reliable assay panel is suitable for high throughput screening and delivers quantitative ligand binding data to facilitate the identification and optimization of potent and selective small molecule bromodomain inhibitors.
(§3) The assay was conducted as follows: For the Bromodomain assays, T7 phage strains displaying bromodomains were grown in parallel in 24-well blocks in an E. coli host derived from the BL21 strain. E. coli were grown to log-phase and infected with T7 phage from a frozen stock (multiplicity of infection=0.4) and incubated with shaking at 32° C. until lysis (90-150 minutes). The lysates were centrifuged (5,000×g) and filtered (0.2 μm) to remove cell debris. […] The liganded beads were blocked with excess biotin and washed with blocking buffer (SeaBlock (Pierce), 1% BSA, 0.05% Tween 20, 1 mM DTT) to remove unbound ligand and to reduce non-specific phage binding. […] Test compounds were prepared as 1000× stocks in 100% DMSO. Kds were determined using an 11-point 3-fold compound dilution series with one DMSO control point. […] The compounds were then diluted directly into the assays such that the final concentration of DMSO was 0.09%. All reactions performed in polypropylene 384-well plates. Each was a final volume of 0.02 ml. […] The bromodomain concentration in the eluates was measured by qPCR.

The target of a further assay is T3, GCN5L2 (Homo sapiens, UniProt Q92830).
T3 construct: T7 phage strains displaying bromodomains were grown in parallel; purchased DiscoverX (BROMOscan / BromoKdMAX service); host or cells: T7 phage in E. coli host derived from BL21
T3 sequence (Q92830 728-832 limits assumed): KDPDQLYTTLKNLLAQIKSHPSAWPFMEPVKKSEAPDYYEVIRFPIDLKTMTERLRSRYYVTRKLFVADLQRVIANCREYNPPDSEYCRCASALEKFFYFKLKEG
Put plainly: BROMOscan BromoKdMAX. Format: binding. On the procedure: as §1, §2, §3

The target in the next assay is T4, BRPF3 (Homo sapiens, UniProt Q9ULD4).
T4 construct: T7 phage strains displaying bromodomains were grown in parallel; purchased DiscoverX; host or cells: T7 phage in E. coli host derived from BL21
T4 sequence (Q9ULD4 589-693 limits assumed): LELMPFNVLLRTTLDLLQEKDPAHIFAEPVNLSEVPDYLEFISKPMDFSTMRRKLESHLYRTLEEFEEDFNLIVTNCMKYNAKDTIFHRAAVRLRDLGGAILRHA
Put plainly: BROMOscan BromoKdMAX. Format: binding. On the procedure: as §1, §2, §3

The target of a further assay is T5, BRD1 (Homo sapiens, UniProt O95696).
T5 construct: T7 phage strains displaying bromodomains were grown in parallel; purchased DiscoverX; host or cells: T7 phage in E. coli host derived from BL21
T5 sequence (O95696 562-666 limits assumed): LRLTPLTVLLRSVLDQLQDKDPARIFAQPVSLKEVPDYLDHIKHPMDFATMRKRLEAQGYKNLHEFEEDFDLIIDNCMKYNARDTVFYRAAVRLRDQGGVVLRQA
Put plainly: BROMOscan BromoKdMAX. Format: binding. As for the experimental part: as §1, §2, §3

In another assay the target is T6, PBRM1(5) (Homo sapiens, UniProt Q86U86).
T6 construct: T7 phage strains displaying bromodomains were grown in parallel; purchased DiscoverX (BROMOscan / BromoKdMAX service); host or cells: T7 phage in E. coli host derived from BL21
T6 sequence (Q86U86 653-763 limits assumed): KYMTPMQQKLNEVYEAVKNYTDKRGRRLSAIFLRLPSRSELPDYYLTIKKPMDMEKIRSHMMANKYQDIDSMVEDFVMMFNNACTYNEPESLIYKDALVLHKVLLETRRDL
Put plainly: BROMOscan BromoKdMAX. Format: binding. As for the experimental part: as §1, §2, §3

A further assay addresses T7, FALZ (Homo sapiens, UniProt Q12830).
T7 construct: T7 phage strains displaying bromodomains were grown in parallel; purchased DiscoverX (BROMOscan / BromoKdMAX service); host or cells: T7 phage in E. coli host derived from BL21
Put plainly: BROMOscan BromoKdMAX. Format: binding. On the procedure: as §1, §2, §3

The next assay concerns the target T8, SMARCA4 (Homo sapiens, UniProt P51532).
T8 construct: T7 phage strains displaying bromodomains were grown in parallel; purchased DiscoverX (BROMOscan / BromoKdMAX service); host or cells: T7 phage in E. coli host derived from BL21
Put plainly: BROMOscan BromoKdMAX. Format: binding. As for the experimental part:
as §1, §2, §3

The target of a further assay is T9, SMARCA2 (Homo sapiens, UniProt P51531).
T9 construct: T7 phage strains displaying bromodomains were grown in parallel; purchased DiscoverX (BROMOscan / BromoKdMAX service); host or cells: T7 phage in E. coli host derived from BL21
T9 sequence (P51531 1378-1506 limits assumed): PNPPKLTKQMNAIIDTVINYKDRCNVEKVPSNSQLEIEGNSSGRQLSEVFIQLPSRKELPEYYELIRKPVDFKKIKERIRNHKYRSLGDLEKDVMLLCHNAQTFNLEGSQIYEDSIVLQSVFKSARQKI
Put plainly: BROMOscan BromoKdMAX. Format: binding. On the procedure: as §1, §2, §3

The target in the next assay is T10, ATAD2A (Homo sapiens, UniProt Q6PL18).
T10 construct: T7 phage strains displaying bromodomains were grown in parallel; purchased DiscoverX; host or cells: T7 phage in E. coli host derived from BL21
T10 sequence (Q6PL18 980-1092 limits assumed): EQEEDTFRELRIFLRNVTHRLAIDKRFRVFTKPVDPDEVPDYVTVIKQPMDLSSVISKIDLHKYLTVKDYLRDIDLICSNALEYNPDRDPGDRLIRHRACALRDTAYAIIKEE
Put plainly: BROMOscan BromoKdMAX. Format: binding. As for the experimental part:
as §1, §2, §3

The target of the next assay is T11, BAZ2B (Homo sapiens, UniProt Q9UIF8).
T11 construct: T7 phage strains displaying bromodomains were grown in parallel; purchased DiscoverX; host or cells: T7 phage in E. coli host derived from BL21
T11 sequence (Q9UIF8 2060-2164 limits assumed): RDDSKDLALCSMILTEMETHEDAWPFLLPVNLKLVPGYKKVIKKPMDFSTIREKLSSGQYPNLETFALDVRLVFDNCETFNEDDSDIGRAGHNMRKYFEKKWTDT
Put plainly: BROMOscan BromoKdMAX. Format: binding. On the procedure:
as §1, §2, §3

The target of a further assay is T12, TRIM33(PHD, Bromo.) (Homo sapiens, UniProt Q9UPN9).
T12 construct: TRIM33(PHD, Bromo.)
T12 sequence (Q9UPN9 whole entry): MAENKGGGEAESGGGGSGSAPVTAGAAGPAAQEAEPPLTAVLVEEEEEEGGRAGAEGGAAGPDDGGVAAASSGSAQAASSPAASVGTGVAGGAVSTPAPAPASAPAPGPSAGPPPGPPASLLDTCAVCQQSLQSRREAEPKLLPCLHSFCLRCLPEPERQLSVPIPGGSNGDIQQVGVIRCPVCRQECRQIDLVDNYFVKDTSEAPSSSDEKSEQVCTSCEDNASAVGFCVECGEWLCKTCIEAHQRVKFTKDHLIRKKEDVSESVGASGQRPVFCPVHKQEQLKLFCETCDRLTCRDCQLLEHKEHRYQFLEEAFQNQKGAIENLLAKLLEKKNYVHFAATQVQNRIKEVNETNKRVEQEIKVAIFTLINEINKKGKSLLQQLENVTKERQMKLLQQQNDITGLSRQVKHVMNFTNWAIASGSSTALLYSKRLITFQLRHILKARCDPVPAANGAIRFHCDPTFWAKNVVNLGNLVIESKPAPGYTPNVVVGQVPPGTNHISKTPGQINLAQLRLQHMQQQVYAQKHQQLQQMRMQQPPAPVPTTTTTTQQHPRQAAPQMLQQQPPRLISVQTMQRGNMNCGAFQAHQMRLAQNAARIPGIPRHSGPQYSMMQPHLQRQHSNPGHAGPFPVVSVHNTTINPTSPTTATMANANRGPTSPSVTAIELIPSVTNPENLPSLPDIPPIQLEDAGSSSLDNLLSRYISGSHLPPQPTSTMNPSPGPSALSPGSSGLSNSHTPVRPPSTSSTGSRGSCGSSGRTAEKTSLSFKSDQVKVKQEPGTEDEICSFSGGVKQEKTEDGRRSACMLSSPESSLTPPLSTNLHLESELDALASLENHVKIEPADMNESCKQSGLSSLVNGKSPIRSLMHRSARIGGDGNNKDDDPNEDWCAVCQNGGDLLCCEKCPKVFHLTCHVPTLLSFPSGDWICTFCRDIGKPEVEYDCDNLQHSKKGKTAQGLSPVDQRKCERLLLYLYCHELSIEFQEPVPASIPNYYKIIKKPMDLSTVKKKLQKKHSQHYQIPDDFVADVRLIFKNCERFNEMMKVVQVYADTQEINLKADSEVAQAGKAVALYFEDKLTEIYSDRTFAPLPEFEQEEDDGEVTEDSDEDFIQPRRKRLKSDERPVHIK
Put plainly: BROMOscan BromoKdMAX. Format: binding. On the procedure: as §1, §2, §3

For another assay, the target named is T13, ATAD2B (Homo sapiens, UniProt Q9ULI0).
T13 construct: T7 phage strains displaying bromodomains were grown in parallel; purchased DiscoverX; host or cells: T7 phage in E. coli host derived from BL21
T13 sequence (Q9ULI0 951-1066 limits assumed): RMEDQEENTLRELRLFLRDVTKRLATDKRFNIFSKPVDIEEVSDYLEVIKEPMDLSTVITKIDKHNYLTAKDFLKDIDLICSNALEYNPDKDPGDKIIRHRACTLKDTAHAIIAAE
Put plainly: BROMOscan BromoKdMAX. Format: binding. On the procedure:
as §1, §2, §3

The next assay has as its target T14, BAZ2A (Homo sapiens, UniProt Q9UIF9).
T14 construct: T7 phage strains displaying bromodomains were grown in parallel; purchased DiscoverX; host or cells: T7 phage in E. coli host derived from BL21
Put plainly: BROMOscan BromoKdMAX. Format: binding. On the procedure:
as §1, §2, §3

The test system of another assay is NCI-H1975 xenografts. Put plainly: NCI-H1975 xenograft tumor growth. Format: in vivo, NMRI-Nude mice. As for the experimental part: Tumor volume was measured using a manual caliper two to three times a week. The tumor volume was calculated using the formula: lager tumor diameter x square of the smaller tumor diameter divided by 2. Based on a linear fit of the mean tumor volumes the slopes of the curves were compared by regression analysis (two-tailed).
The response was determined by comparing tumor volume change at time t to its baseline: % tumor volume change=ΔVolt=100%×((Vt−Vinitial)/Vinitial). The Best Response was the minimum value of ΔVolt for t≥10 d. For each time t, the average of ΔVolt from t=0 to t was also calculated. The BestAvgResponse is defined as the minimum value of this average for t≥10 d. This metric captures a combination of speed, strength and durability of response into a single value. […] Mice that were sacrificed because of an adverse event before they had completed 14 d on trial were removed from the data set.
The response was determined by comparing tumor volume change at time t to its baseline: % tumor volume change=ΔVolt=100%×((Vt−Vinitial)/Vinitial). The Best Response was the minimum value of ΔVolt for t≥6 d. For each time t, the average of ΔVolt from t=0 to t was also calculated. The BestAvgResponse is defined as the minimum value of this average for t≥10 d. This metric captures a combination of speed, strength and durability of response into a single value. […] Mice that were sacrificed because of an adverse event before they had completed 14 d on trial were removed from the data set.

For assay [2], the system named is HCC827 cells. Put plainly: Label-free determination of cell proliferation (CELIGO). Format: cell-based. Conditions: HCC827, combined with 100 nM osimertinib, 21 days (FIG. 9).
Setting [3] is: 2 mg/kg osimertinib in combination with 90 mg/kg Compound C.

T14 sequence (Q9UIF9 1793-1897 limits assumed): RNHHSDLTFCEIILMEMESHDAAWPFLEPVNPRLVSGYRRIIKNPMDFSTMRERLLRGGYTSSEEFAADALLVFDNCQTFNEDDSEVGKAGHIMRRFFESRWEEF
T8 sequence (P51532 1453-1564 limits assumed): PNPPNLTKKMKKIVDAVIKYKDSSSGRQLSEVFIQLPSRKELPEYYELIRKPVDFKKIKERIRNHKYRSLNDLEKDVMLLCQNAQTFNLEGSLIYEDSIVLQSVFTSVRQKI

As a reminder, the EC50 is the concentration at which the effect is half-maximal. As to `CC(=O)N1C[C@H](c2nc(Nc3ccnc(C)c3)cc(-c3cccnc3)n2)CC[C@@H]1C` [Compound 00071, 1-((2S,5R)-2-methyl-5-(4-((2-methylpyridin-4-yl)amino)-6-(pyridin-3-yl)pyrimidin-2-yl)piperidin-1-yl)ethan-1-one], the “Effect on cell proliferation as single agent” value in the assay with HCC827 cells [1] (absence of EGFR inhibitor (FIG. 3 left)) was “absence of an anti-proliferative effect”. Further, in the assay with HCC827 cells [1] (in presence of 300 nM Gefitinib (FIG. 3)), the “Anti-proliferative activity / re-growth in presence of Gefitinib” value is reported as “potentiate the effect of the EGFR inhibitor”. In addition, the EC50 at CBP bromodomain was < 0.2 µM.
Usually Kd stands for the free concentration of one partner at which half of the binding sites on the other are occupied at equilibrium, for simple one-to-one binding. The low end stands for higher affinity, the high end for lower affinity. On to `CC(=O)N1C[C@H](c2nc(Nc3cccc(-c4cn(C)nn4)c3)cc(-c3cnccn3)n2)CC[C@@H]1C` [Compound C, 1-((2S,5R)-2-methyl-5-(4-((3-(1-methyl-1H-1,2,3-triazol-4-yl)phenyl)amino)-6-(pyrazin-2-yl)pyrimidin-2-yl)piperidin-1-yl)ethan-1-one], for which the Kd on PBRM1(2), at GCN5L2, on BRPF3, at BRD1, on PBRM1(5) and at FALZ was > 10 µM each time. Besides, the Kd on SMARCA4 was > 10 µM; on SMARCA2 it was > 10 µM; on ATAD2A it was > 10 µM; at BAZ2B, > 10 µM; at TRIM33(PHD, Bromo.), > 10 µM; at ATAD2B it was > 10 µM. On BAZ2A, the Kd was > 10 µM. In the assay with NCI-H1975 xenografts (setting [3]), the Response to therapy entry was “response to therapy is significantly increased”. The “Slope of linear regression fit of mean tumor volumes over time” value with NCI-H1975 xenografts (setting [3]) is given as −7.4. Further, in the assay on NCI-H1975 xenografts (2 mg/kg osimertinib in combination with 90 mg/kg Compound C, daily, orally), the “Tumor growth (slopes of mean tumor volume curves) versus osimertinib group” value is given as “significant difference”. The “Tumor growth (slopes of mean tumor volume curves) versus vehicle” value in the assay with NCI-H1975 xenografts (90 mg/kg Compound C single agent, daily, orally) was “No significant difference”. The “Development of drug resistance / re-growth” value in the assay with HCC827 cells [2] is given as “prevent the development of drug resistance”.
